From patent US20100040706A1, “METHOD OF ANTI-AGEING COSMETIC CARE BY STIMULATION OF SURVIVIN EXPRESSION” (LVMH RECHERCHE, priority 2008, published 2010)

Test system: survivin
Assay: Survivin ELISA assay on normal human keratinocyte cultures, related to total proteins (BCA)
Assay type: cell-based
Details: forskolin 4 μg/ml (10 μM)
Description: The normal human keratinocytes are cultured in 75 cm^2 flasks, in an incubator at 37° C. under a humid atmosphere containing 5% CO2, in serum-free keratinocyte medium supplemented with EGF (Epidermal Growth Factor) and with BPE (Bovine Pituitary Extract) (KSFMc) (Gibco ref: 17005-034+37000-015). The cells are seeded (day D0) into 48-well microplates in a proportion of 50 000 cells in 500 μL of medium per well. After incubation for 24 hours (day D1), the cells have become adherent and the treatment step is then carried out. The seeding medium is removed and the treatment medium containing the ingredients to be evaluated at the various concentrations, or the excipient thereof (for example DMSO) in the same proportion, is then added to each culture well. A peak of survivin expression by the cells is observed after treatment for 16 hours. The wells are then rinsed with PBS. Half the wells of the microplate are used to lyse the keratinocytes and to assay the intracellular survivin. […] The total proteins are assayed using a BCA colorimetric test (reference: BC Assay Kit, Uptima Interchim), by measuring absorbance at 570 nm. […] After the enzyme reaction has been blocked with sulfuric acid, the survivin is quantified by measuring absorbance at 450 nm.

C=C[C@@]1(C)CC(=O)[C@]2(O)[C@@]3(C)[C@@H](O)CCC(C)(C)[C@@H]3[C@H](O)[C@H](OC(C)=O)[C@@]2(C)O1 [Forskolin, forskolin]
% activation (16 h, solvent control = 100%): 147.9% | Survivin (16 h treatment, normal human keratinocytes): 7.27 pg/mg proteins
